Results published in patent US9492471B2, “Methods of treating a disease or disorder associated with Bruton'S Tyrosine Kinase” (Celgene Avilomics Research, Inc., priority 2013, dated 2016).
Like-named read-outs stand apart in the source and are kept apart here.

What was measured:
Test in all cases: HotSpot kinase profiling
Format in all cases: biochemical
KHS/MAP4K5 = target: T1, KHS/MAP4K5 (Homo sapiens, UniProt Q9Y4K4)
T1 construct: purchased Reaction Biology Corp
Summary of the method: (§1)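 Percent inhibition, averaged when run more than once and referenced to a DMSO negative control, came from a radioactive filter-binding readout on P81 paper. Reactions of kinase with freshly made substrate and cofactors ran for 2 h at room temperature.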

CDK2/cyclin A1 = target: T2, CDK2/cyclin A1 (Homo sapiens, UniProt P24941)
T2 construct: purchased Reaction Biology Corp
Summary of the method: as §1

VRK1 = target: T3, VRK1 (Homo sapiens, UniProt Q99986)
T3 construct: purchased Reaction Biology Corp
T3 sequence (Q99986 1-396): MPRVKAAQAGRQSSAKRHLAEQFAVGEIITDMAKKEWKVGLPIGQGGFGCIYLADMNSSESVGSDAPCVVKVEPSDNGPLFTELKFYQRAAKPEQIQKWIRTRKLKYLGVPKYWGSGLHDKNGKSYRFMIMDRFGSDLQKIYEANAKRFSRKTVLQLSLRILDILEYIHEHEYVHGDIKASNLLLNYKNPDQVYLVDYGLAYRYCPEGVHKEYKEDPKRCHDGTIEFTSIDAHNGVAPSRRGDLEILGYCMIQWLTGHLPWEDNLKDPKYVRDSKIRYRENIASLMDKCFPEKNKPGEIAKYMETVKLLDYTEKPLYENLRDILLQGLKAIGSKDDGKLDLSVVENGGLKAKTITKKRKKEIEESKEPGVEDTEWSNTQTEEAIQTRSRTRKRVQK
Summary of the method: as §1

CAMK1d = target: T4, CAMK1d (Homo sapiens, UniProt Q8IU85)
T4 construct: purchased Reaction Biology Corp
T4 sequence (Q8IU85 whole entry): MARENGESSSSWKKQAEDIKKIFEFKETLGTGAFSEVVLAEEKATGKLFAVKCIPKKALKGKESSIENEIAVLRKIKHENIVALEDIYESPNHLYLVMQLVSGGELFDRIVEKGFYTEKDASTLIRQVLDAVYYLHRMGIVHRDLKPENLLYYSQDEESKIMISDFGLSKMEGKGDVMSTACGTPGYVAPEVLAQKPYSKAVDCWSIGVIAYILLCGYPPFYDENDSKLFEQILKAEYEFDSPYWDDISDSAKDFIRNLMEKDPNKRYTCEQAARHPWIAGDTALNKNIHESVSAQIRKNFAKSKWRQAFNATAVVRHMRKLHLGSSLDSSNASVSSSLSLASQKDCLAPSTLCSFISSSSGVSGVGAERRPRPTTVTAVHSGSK
Summary of the method: as §1

PKD2/PRKD2 = target: T5, PKD2/PRKD2 (Homo sapiens, UniProt Q9BZL6)
T5 construct: purchased Reaction Biology Corp
T5 sequence (Q9BZL6 1-878): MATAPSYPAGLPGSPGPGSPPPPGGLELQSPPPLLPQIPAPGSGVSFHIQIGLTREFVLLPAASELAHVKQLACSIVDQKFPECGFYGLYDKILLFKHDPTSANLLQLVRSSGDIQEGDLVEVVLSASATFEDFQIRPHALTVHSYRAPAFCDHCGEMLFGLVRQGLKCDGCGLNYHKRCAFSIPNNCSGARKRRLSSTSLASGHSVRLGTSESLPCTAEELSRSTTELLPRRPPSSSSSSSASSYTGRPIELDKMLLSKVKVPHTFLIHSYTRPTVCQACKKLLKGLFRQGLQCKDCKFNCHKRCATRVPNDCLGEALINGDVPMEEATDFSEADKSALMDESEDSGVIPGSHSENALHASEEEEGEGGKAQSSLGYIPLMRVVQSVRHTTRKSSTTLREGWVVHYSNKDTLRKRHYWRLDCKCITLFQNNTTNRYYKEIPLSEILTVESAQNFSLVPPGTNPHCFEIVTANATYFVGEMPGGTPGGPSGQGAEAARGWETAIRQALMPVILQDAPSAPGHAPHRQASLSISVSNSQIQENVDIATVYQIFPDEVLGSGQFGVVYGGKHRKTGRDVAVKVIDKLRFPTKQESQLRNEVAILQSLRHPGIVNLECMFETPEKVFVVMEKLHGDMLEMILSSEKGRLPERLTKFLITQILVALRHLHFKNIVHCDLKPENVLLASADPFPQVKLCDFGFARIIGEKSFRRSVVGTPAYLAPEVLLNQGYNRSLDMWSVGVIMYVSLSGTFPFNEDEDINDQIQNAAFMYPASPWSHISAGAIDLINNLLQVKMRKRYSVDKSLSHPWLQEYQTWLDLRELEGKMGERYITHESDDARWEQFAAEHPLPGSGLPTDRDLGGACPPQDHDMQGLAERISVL
Summary of the method: as §1

IKKa/CHUK = target: T6, IKKa/CHUK (Homo sapiens, UniProt O15111)
T6 construct: purchased Reaction Biology Corp
T6 sequence (O15111 1-745): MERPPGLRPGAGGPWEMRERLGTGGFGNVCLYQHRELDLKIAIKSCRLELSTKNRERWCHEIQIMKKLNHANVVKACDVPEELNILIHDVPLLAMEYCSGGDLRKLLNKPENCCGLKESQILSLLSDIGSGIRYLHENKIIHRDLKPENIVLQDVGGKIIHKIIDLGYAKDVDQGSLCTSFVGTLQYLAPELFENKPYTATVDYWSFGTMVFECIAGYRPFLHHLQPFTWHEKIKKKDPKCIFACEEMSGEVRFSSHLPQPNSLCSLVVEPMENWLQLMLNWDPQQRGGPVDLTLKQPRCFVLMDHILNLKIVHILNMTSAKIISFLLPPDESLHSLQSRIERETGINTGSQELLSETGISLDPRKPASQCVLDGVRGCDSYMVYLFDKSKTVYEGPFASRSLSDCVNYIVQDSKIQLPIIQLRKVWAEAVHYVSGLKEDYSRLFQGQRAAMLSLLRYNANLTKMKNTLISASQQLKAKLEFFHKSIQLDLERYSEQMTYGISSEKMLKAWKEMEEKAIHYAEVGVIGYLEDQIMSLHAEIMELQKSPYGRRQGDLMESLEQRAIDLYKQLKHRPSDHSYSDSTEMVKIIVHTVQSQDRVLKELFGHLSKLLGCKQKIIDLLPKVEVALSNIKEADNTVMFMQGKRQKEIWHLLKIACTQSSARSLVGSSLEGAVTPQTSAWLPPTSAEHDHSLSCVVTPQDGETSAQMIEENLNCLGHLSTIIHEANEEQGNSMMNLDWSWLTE
Summary of the method: as §1

[1] = read-out: % Enzyme Activity (relative to DMSO controls) Run 1
[2] = read-out: % Enzyme Activity (relative to DMSO controls) Run 2

T1 sequence (Q9Y4K4 whole entry): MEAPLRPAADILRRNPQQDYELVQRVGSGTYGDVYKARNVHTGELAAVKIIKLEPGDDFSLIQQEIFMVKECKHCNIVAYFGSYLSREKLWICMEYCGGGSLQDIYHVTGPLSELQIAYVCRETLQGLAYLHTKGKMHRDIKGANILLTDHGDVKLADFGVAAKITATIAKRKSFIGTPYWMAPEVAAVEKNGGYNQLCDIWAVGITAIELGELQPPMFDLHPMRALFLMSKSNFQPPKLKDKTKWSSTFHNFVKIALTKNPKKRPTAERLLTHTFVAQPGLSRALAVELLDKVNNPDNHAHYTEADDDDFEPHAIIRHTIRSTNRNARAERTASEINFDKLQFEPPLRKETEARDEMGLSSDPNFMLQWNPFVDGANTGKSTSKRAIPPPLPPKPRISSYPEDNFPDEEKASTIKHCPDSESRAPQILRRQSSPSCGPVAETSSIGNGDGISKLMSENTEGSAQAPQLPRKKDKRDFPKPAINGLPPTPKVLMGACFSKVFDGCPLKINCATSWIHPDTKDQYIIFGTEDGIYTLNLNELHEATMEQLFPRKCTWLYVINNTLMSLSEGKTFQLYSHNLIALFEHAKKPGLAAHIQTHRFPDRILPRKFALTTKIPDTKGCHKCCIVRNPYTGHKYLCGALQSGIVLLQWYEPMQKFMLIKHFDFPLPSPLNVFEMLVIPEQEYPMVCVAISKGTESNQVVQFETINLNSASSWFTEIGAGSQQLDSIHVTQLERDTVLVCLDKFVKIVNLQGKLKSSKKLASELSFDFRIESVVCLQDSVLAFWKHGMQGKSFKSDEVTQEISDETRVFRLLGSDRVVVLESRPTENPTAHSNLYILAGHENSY

C=CC(=O)Nc1cccc(Nc2nc(Nc3ccc(OCCOC)c(F)c3)ncc2F)c1 [Compound 2]
inhibition at 3 µM (KHS/MAP4K5): 7.15%
remaining activity at 3 µM (KHS/MAP4K5; [1]): 94.9%
remaining activity at 3 µM (KHS/MAP4K5; [2]): 90.8%
inhibition at 3 µM (CDK2/cyclin A1): 22%
remaining activity at 3 µM (CDK2/cyclin A1; [1]): 78.2%
remaining activity at 3 µM (CDK2/cyclin A1; [2]): 77.7%
inhibition at 3 µM (VRK1): 12.9%
remaining activity at 3 µM (VRK1; [1]): 84.3%
remaining activity at 3 µM (VRK1; [2]): 89.9%
inhibition at 3 µM (CAMK1d): -3.36%
remaining activity at 3 µM (CAMK1d; [1]): 104%
remaining activity at 3 µM (CAMK1d; [2]): 103%
inhibition at 3 µM (PKD2/PRKD2): 13.7%
remaining activity at 3 µM (PKD2/PRKD2; [1]): 86.4%
remaining activity at 3 µM (PKD2/PRKD2; [2]): 86.2%
inhibition at 3 µM (IKKa/CHUK): 8.54%
remaining activity at 3 µM (IKKa/CHUK; [1]): 91.4%
remaining activity at 3 µM (IKKa/CHUK; [2]): 91.5%
